# From article PMC6522510 (Nature Communications, 2019)
# Where two headings read alike, the source gives them in different places.
# How the values were obtained:
# Experiment in all cases: Secondary dose-response HTS, Cell Titer Glo; call rule not given here
# Type in all cases: cell-based, human
# ML2 = tested on: ML2
# MV4-11 = tested on: MV4-11
# MOLM-13 = tested on: MOLM-13
# CHRF288-11 = settings: secondary high-throughput screen, CHRF288-11
# CMK = settings: CMK; for EC50: Homo sapiens, read-out: average effective concentration, CMK
# U937 = settings: for EC50: Homo sapiens
# [1] = secondary high-throughput screen, MOLM-13
# [2] = secondary high-throughput screen, MV4-11
# [3] = secondary high-throughput screen, ML-2
# [4] = secondary high-throughput screen
# [5] = Homo sapiens, secondary high-throughput screen, MV4-11, read-out: average effective concentration, MV4-11
# [6] = secondary high-throughput screen, U937
# [7] = Homo sapiens, secondary high-throughput screen, MOLM-13, read-out: average effective concentration, MOLM-13
# [8] = U-937, secondary high-throughput screen, U937, read-out: average effective concentration, U937
# [9] = Homo sapiens, secondary high-throughput screen, ML-2, read-out: average effective concentration, ML-2
Molecule,"average effective concentration, MOLM-13 (MOLM-13; [1])","average effective concentration, MV4-11 (MV4-11; [2])","average effective concentration, CHRF288-11 (CHRF288-11)","average effective concentration, CMK (CMK; [4])",also measured
"COc1ccc(C[C@H](NC(=O)[C@H](C)NC(=O)CN2CCOCC2)C(=O)N[C@@H](Cc2ccccc2)C(=O)C2(C)CO2)cc1 (stereo in doubt) [ONX-0914, reference compound]",–,–,–,–,"EC50 (ML2; secondary HTS, 72 h, average of triplicate, read-out: EC50 ML2): 40 nM; EC50 (MV4-11; secondary HTS, 72 h, average of triplicate, read-out: EC50 MV4-11): 50 nM"
COc1cc(O)c2c(c1)/C=C/C[C@H](O)[C@H](O)C(=O)/C=C\C[C@H](C)OC2=O [(5Z)-7-OXOZEAENOL],Inactive,Inactive,–,–,–
N#C/C(=C\c1ccc(-c2cc(Cl)ccc2Cl)o1)C(=O)Nc1cccc2ncccc12 [AGK 2],Inactive,Inactive,Inactive,Inactive,"average effective concentration, ML-2 (ML2; [3]): Inactive"
CNC(=O)c1ccccc1Sc1ccc2c(/C=C/c3ccccn3)n[nH]c2c1 [AXITINIB],–,–,–,–,EC50 (MV4-11; [5]): 1100 nM
C=CC(=O)Nc1cccc(Nc2nc(Nc3ccc(OCCOC)cc3)ncc2F)c1 [CC-292 (AVL-292)],Inactive,Inactive,Inactive,–,–
Br.Cc1cc2nc(NCCCO)n(CC(=O)c3cc(C(C)(C)C)c(O)c(C(C)(C)C)c3)c2cc1C [CID-2858522],Inactive,Inactive,Inactive,Inactive,–
COc1cc2ncnc(-n3nc(-c4ccccn4)nc3N)c2cc1OC [CP-466722],Inactive,Inactive,Inactive,Inactive,"average effective concentration, ML-2 (ML2; [3]): Inactive; average effective concentration, U937 (U937; [6]): Inactive"
Cc1cc(Cl)ccc1OCCCC(=O)NO [DROXINOSTAT],Inactive,Inactive,–,Inactive,"average effective concentration, ML-2 (ML2; [3]): Inactive; average effective concentration, U937 (U937; [6]): Inactive"
CN(C)C1CCN(C(=O)c2ccc(NC(=O)Nc3ccc(-c4nc(N5CCOCC5)nc(N5CCOCC5)n4)cc3)cc2)CC1 [Gedatolisib],–,–,–,–,EC50 (MOLM-13; [7]): 190 nM; EC50 (CMK; [4]): 7700 nM; EC50 (MV4-11; [5]): 47 nM; EC50 (U937; [8]): 24 nM
C[C@@H]1NC(=O)[C@H]2CCCN2C(=O)[C@H](CCCCCC(=O)[C@@H]2CO2)NC(=O)[C@@H](C)NC1=O [HC TOXIN],–,Inactive,–,Inactive,–
CCNC(=O)C[C@@H]1N=C(c2ccc(Cl)cc2)c2cc(OC)ccc2-n2c(C)nnc21 [I-BET-762],–,–,Inactive,Inactive,–
O=C(c1ccc(Nc2nccc(-c3cc4ccccc4s3)n2)cc1)N1CCC(N2CCCC2)CC1 [IKK 16],Inactive,Inactive,–,–,–
Cc1ccc(NCCCc2ccccc2)c(N)c1 [JSH-23],Inactive,Inactive,–,–,–
CCN1CCN(CC(=O)Nc2ccc(-c3cccc4c(=O)cc(N5CCOCC5)oc34)c3sc4ccccc4c23)CC1 [KU-0060648],–,Inactive,–,–,–
CO[C@@H]1[C@H](N(C)C(=O)c2ccccc2)C[C@H]2O[C@]1(C)n1c3ccccc3c3c4c(c5c6ccccc6n2c5c31)C(=O)NC4 [MIDOSTAURIN],–,–,–,–,EC50 (MOLM-13; [7]): 65 nM; EC50 (ML2; [9]): 17 nM
CC(C)C(=O)SCCCCCCC(=O)Nc1nc(-c2ccccc2)cs1 [NCH 51],–,Inactive,–,Inactive,–

Molecule,"average effective concentration, MOLM-13 (MOLM-13; [1])","average effective concentration, MV4-11 (MV4-11; [2])","average effective concentration, CHRF288-11 (CHRF288-11)","average effective concentration, CMK (CMK; [4])",also measured
NC(=O)c1cccc2cn(-c3ccc([C@@H]4CCCNC4)cc3)nc12 [NIRAPARIB],–,–,–,–,"EC50 (MOLM-13; [7]): 7600 nM; EC50 (ML2; [9]): 180 nM; EC50 (CHRF288-11; Homo sapiens, HTS, read-out: average effective concentration, CHRF288-11): 220 nM; EC50 (CMK; [4]): 280 nM; EC50 (MV4-11; [5]): > 10000 nM; EC50 (U937; [8]): > 10000 nM"
O=c1cc(N2CCOCC2)oc2c(-c3cccc4c3sc3ccccc34)cccc12 [NU 7441],Inactive,Inactive,Inactive,Inactive,"average effective concentration, U937 (U937; [6]): Inactive"
CNC(=O)c1ccccc1Nc1nc(Nc2ccc(N3CCOCC3)cc2OC)ncc1Cl [NVP-TAE226],–,Inactive,–,–,–
CN(c1ncccc1CNc1nc(Nc2ccc3c(c2)CC(=O)N3)ncc1C(F)(F)F)S(C)(=O)=O [PF-00562271],Inactive,Inactive,Inactive,–,–
Cc1ccc(NC(=O)CCCCCC(=O)Nc2ccccc2N)cc1 [PIMELIC DIPHENYLAMIDE 106],–,Inactive,–,Inactive,–
Nc1ccc2ncnc(NCCc3ccc(Oc4ccccc4)cc3)c2c1 [QNZ],Inactive,Inactive,Inactive,Inactive,"average effective concentration, ML-2 (ML2; [3]): Inactive"
COc1ccc([C@@]23Oc4cc(OC)cc(OC)c4[C@]2(O)[C@H](O)[C@H](C(=O)N(C)C)[C@H]3c2ccccc2)cc1 [ROCAGLAMIDE A],–,Inactive,–,–,–
O=C(CCCCCCNC(=O)c1cnc(N(c2ccccc2)c2ccccc2)nc1)NO [ROCILINOSTAT],Inactive,Inactive,–,–,–
O=C(Nc1ncc([N+](=O)[O-])s1)c1ccc([N+](=O)[O-])c(Cl)c1 [SM-7368],Inactive,Inactive,Inactive,Inactive,–
O=C(Nc1ccccc1-c1cn2c(CN3CCNCC3)csc2n1)c1cnc2ccccc2n1 [SRT1720],–,Inactive,–,Inactive,–
CN(C)CCCNc1c2ccccc2nc2c1[nH]c1ccccc12 [SYUIQ-5],–,Inactive,–,Inactive,–
"CNC(=O)c1cc(Oc2ccc(NC(=O)Nc3ccc(Cl)c(C(F)(F)F)c3)cc2)ccn1 [Sorafenib, reference compound]",–,–,–,387,EC50 (MOLM-13; [7]): 18 nM; EC50 (ML2; [9]): > 10000 nM; EC50 (U937; [8]): > 10000 nM
Nc1nc(NC2CC2)cc(-c2cccc(Cl)c2Cl)n1 [TH588],Inactive,Inactive,Inactive,–,–
Cc1cc(Nc2cc(N3CCN(C)CC3)nc(Sc3ccc(NC(=O)C4CC4)cc3)n2)[nH]n1 [TOZASERTIB],–,–,–,–,"EC50 (MOLM-13; Homo sapiens, MOLM-13, read-out: average effective concentration, MOLM-13): 39 nM; EC50 (ML2; Homo sapiens, ML-2, read-out: average effective concentration, ML-2): > 10000 nM; EC50 (CMK): 1400 nM; EC50 (MV4-11; Homo sapiens, MV4-11, read-out: average effective concentration, MV4-11): 68 nM; EC50 (U937; U-937, read-out: average effective concentration, U937): > 10000 nM"
AZD4547,–,–,–,–,"EC50 (MOLM-13; secondary high-throughput screen, MOLM-13, read-out: average effective concentration, MOLM-13): 4100 nM; EC50 (MV4-11; secondary high-throughput screen, MV4-11, read-out: average effective concentration, MV4-11): 7800 nM"
